Measurements from PubChem BioAssay (NCI).
Several values for one entry are separate records, joined by “and”; a condition that tells them apart may be missing. Equal entries are not always repeated.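 Interpolation was linear, between the two tested concentrations surrounding the appropriate level; five concentrations were tested over 48 hours in 96-well plates. Abbreviation: GI50, concentration required for 50% inhibition of growth. The concentration for full growth arrest is given as TGI.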

Legend:
Test in all cases: NCI tumour cell line growth inhibition, 48 h
U251 CNS = tested on: U251 CNS
SN12C renal = tested on: SN12C renal
A549 NSCLC = tested on: A549 NSCLC
HOP-62 NSCLC = tested on: HOP-62 NSCLC
MOLT-4 leukemia = tested on: MOLT-4 leukemia
TK-10 renal = tested on: TK-10 renal
HOP-92 NSCLC = tested on: HOP-92 NSCLC
MDA-MB-435 = tested on: MDA-MB-435
T-47D breast = tested on: T-47D breast
BT-549 breast = tested on: BT-549 breast

SMILES	TGI (U251 CNS) [µM]	TGI (SN12C renal) [µM]	TGI (A549 NSCLC) [µM]	TGI (HOP-62 NSCLC)	TGI (MOLT-4 leukemia)	TGI (TK-10 renal)	TGI (HOP-92 NSCLC)	GI50 (MDA-MB-435) [µM]	TGI (MDA-MB-435) [µM]	GI50 (HOP-92 NSCLC) [µM]	GI50 (U251 CNS) [µM]	GI50 (SN12C renal) [µM]	GI50 (A549 NSCLC) [µM]	GI50 (HOP-62 NSCLC) [µM]	GI50 (MOLT-4 leukemia) [µM]	GI50 (TK-10 renal)	GI50 (T-47D breast) [µM]	TGI (T-47D breast) [µM]	TGI (BT-549 breast) [µM]	GI50 (BT-549 breast) [µM]
CCCCc1c2c(nc3c1CC/C(=C\c1ccccc1)C3=O)CCCC2	10.8	10.9	28	16.5 µM	11.7 µM	21.1 µM	–	–	–	–	–	–	–	–	–	–	–	–	–	–
CCOC(=O)c1c(/C=N\Nc2ccccc2)nc2ccccc2c1-c1ccccc1	> 100	> 100	> 100	> 100 µM	68.8 µM	> 100 µM	> 100 µM	–	–	–	–	–	–	–	–	–	–	–	–	–
CCOC(=O)NC/C=C/CO	> 100	> 100	> 100	> 100 µM	> 100 µM	> 100 µM	–	–	–	–	–	–	–	–	–	–	–	–	–	–
O=C1NC2(CCCCC2)C2=C1CCCCC2	> 100	> 100	> 100	> 100 µM	> 100 µM	> 100 µM	> 100 µM	–	–	–	–	–	–	–	–	–	–	–	–	–
NC(=O)NC(=O)C1CCC(=O)N1S(=O)(=O)c1ccc(Cl)cc1 (stereo unspecified)	> 100	> 100	> 100	> 100 µM	> 100 µM	> 100 µM	> 100 µM	–	–	–	–	–	–	–	–	–	–	–	–	–
CCCNc1ncnc2c1cnn2C	> 100	> 100	> 100	> 100 µM	> 100 µM	> 100 µM	> 100 µM	–	–	–	–	–	–	–	–	–	–	–	–	–
O=C(Nc1cccc(C(F)(F)F)c1)Nc1cc(S(=O)(=O)NC2CC2)ccc1-c1ccsc1	13.6	18.3	14.7	18.5 µM	9.53 µM	17.2 µM	7.45 µM	3.61	13.1	1.73	3.78	4.33	3.68	5.11	3.02	4.65 µM	3.16	15	–	–
COC(=O)N/N=C(\c1nc2ccc(Cl)cc2[nH]c1=O)C(O)c1ccc([N+](=O)[O-])cc1 (stereo unspecified)	> 100	> 100	> 100	> 100 µM	> 100 µM	–	> 100 µM	–	–	–	–	–	–	–	–	–	–	–	–	–
CC1CC2C(=O)N(c3ccccc3)C(=O)C2c2[nH]c3ccccc3c21 (stereo unspecified)	> 100	> 100	> 100	–	> 100 µM	> 100 µM	–	–	–	–	–	–	–	–	–	–	–	–	–	–
Cc1cc2c(=O)cc(-c3ccncc3)oc2c(C(=O)O)c1C	> 100	> 100	> 100	> 100 µM	> 100 µM	> 100 µM	> 100 µM	–	–	–	–	–	–	–	–	–	–	–	–	–
CCCCCCCCCCCCCCCC(=O)NCC(OCC)OCC	> 100	> 100	> 100	> 100 µM	–	> 100 µM	> 100 µM	–	–	–	–	–	–	–	–	–	–	–	–	–
COC(=O)CCSC(=O)Nc1ccccc1Cl	> 100	> 100	> 100	> 100 µM	> 100 µM	> 100 µM	–	–	–	–	–	–	–	–	–	–	–	–	–	–
COc1cccc(OC)c1/C=N\N1C(=O)c2ccccc2C1=O	–	> 100	> 100	> 100 µM	> 100 µM	> 100 µM	> 100 µM	–	–	–	–	–	–	–	–	–	–	–	–	–
Cc1c2cc[n+](C)cc2c(C)c2c1[nH]c1ccc(Oc3ccccc3)cc12	> 100	> 100	> 100	38 µM and 26.3 µM	> 43.7 µM and 12.7 µM	> 71.2 µM and 30.2 µM	7.37 µM and 6.77 µM	–	–	–	–	–	–	–	–	1.55 µM and 3.43 µM	–	–	–	–
CC(=O)OCc1cc2c(s1)C(=O)c1sccc1C2=O	0.706	0.261	0.368	–	–	3.73 µM	1.68 µM	–	0.0322	–	–	–	–	–	–	–	–	0.882	–	–
O=C(Nc1cccc(C(F)(F)F)c1)Nc1ccc(OCc2nnc(-c3ccccc3)o2)c(F)c1	19.6	46.1	38.5	18 µM	39.8 µM	68.9 µM	5.81 µM	7.51	89.8	1.77	3.73	9.36	6.02	3.4	3.59	20.5 µM	2.44	16.1	–	–
NC1CC(n2ccc(=O)[nH]c2=O)OC1C(O)CO (stereo unspecified)	> 100	> 100	> 100	> 100 µM	> 100 µM	> 100 µM	> 100 µM	–	–	–	–	–	–	–	–	–	–	–	–	–
O=[N+]([O-])c1cccc(C2=NOC3CCCC23)c1 (stereo unspecified)	> 100	> 100	> 100	> 100 µM	> 100 µM	> 100 µM	> 100 µM	–	–	–	–	–	–	–	–	–	–	–	–	–
C=CCCC1(CCP(=O)(c2ccccc2)c2ccccc2)OCCO1	> 100	> 100	> 100	> 100 µM	> 100 µM	> 100 µM	–	–	> 100	–	–	–	–	–	–	–	–	–	> 100	–

SMILES	TGI (U251 CNS) [µM]	TGI (SN12C renal) [µM]	TGI (A549 NSCLC) [µM]	TGI (HOP-62 NSCLC)	TGI (MOLT-4 leukemia)	TGI (TK-10 renal)	TGI (HOP-92 NSCLC)	GI50 (MDA-MB-435) [µM]	TGI (MDA-MB-435) [µM]	GI50 (HOP-92 NSCLC) [µM]	GI50 (U251 CNS) [µM]	GI50 (SN12C renal) [µM]	GI50 (A549 NSCLC) [µM]	GI50 (HOP-62 NSCLC) [µM]	GI50 (MOLT-4 leukemia) [µM]	GI50 (TK-10 renal)	GI50 (T-47D breast) [µM]	TGI (T-47D breast) [µM]	TGI (BT-549 breast) [µM]	GI50 (BT-549 breast) [µM]
O=C(/C=C/c1ccc(OCC(=O)N2CCN(c3ccccc3)CC2)cc1)c1ccccc1	38	> 100	> 100	> 100 µM	> 25.2 µM	> 79.4 µM	> 100 µM	–	–	–	–	–	–	–	–	–	–	–	–	–
Cc1c(C(=O)C/C(=N/NC(=O)CC#N)C(N)=O)[n+](=O)c2ccccc2n1[O-]	> 100	97.7	> 100	> 100 µM	> 100 µM	> 100 µM	> 100 µM	–	–	–	–	–	–	–	–	–	–	–	–	–
Cn1nc(-c2ccccc2)c(C(=O)/C=C/c2ccccc2)c(N2CCCC2)c1=O	26.4	77.6	> 100	24.2 µM	22.3 µM	49.3 µM	6.23 µM	–	–	–	–	–	–	–	–	–	–	–	–	–
Cc1cc(C2(c3cc(C)c(O)c4ncccc34)OC(=O)c3ccccc32)c2cccnc2c1O	> 100	12.1	14	> 100 µM	> 100 µM	–	–	–	> 100	–	–	–	–	0.643	–	–	–	–	> 100	5.26
CN(C)c1ccc(/C=C2\Cc3ccccc3C2=O)cc1Br	> 100	> 100	> 100	> 100 µM	93.5 µM	> 100 µM	–	–	–	–	–	–	–	–	–	–	–	–	–	–
NC1=NN(c2ccccc2)C(=O)C1/C(=N\NC(=O)c1cc2ccccc2cc1O)C(=O)Nc1ccc(Cl)cc1 (stereo unspecified)	> 100	> 100	> 100	> 100 µM	40.5 µM	> 100 µM	71.3 µM	–	–	–	–	–	–	–	–	–	–	–	–	–
N#Cc1c(N/N=C/c2c(Cl)cccc2Cl)nc(N)nc1N1CCCC1	> 100	> 100	> 100	> 100 µM	18.3 µM	> 100 µM	> 100 µM	–	–	9.41	2.51	4.68	3.65	1.7	2.88	5.9 µM	> 100	> 100	> 100	11.3
CC1=CC(=O)N2[C@H](OC[C@@H]2C(C)C)O1	> 100	> 100	> 100	> 100 µM	> 100 µM	> 100 µM	> 100 µM	–	–	–	–	–	–	–	–	–	–	–	–	–
O=c1cccccc1[O-].O=c1cccccc1[O-].O=c1cccccc1[O-].[Dy+3]	> 100	> 100	> 100	99.9 µM	46.2 µM	> 100 µM	> 100 µM	–	–	–	24.8	17.7	–	33	–	–	–	–	–	–
O=C(CO[N+](=O)[O-])OCC(=O)c1ccccc1	> 100	> 100	> 100	> 100 µM	> 100 µM	> 100 µM	> 100 µM	–	–	–	–	–	–	–	–	–	–	–	–	–
CC(C)=NO.CC(C)=NO.CC(C)=NO.CC(C)=NO.[Ti]	> 100	> 100	> 100	> 100 µM	> 100 µM	> 100 µM	> 100 µM	–	–	> 100	> 100	> 100	> 100	> 100	> 100	> 100 µM	–	–	–	–
O=NNc1nc(-c2ccccn2)nc2ccccc12	> 100	> 100	> 100	48.1 µM	> 100 µM	> 100 µM	–	–	–	–	–	–	–	–	–	–	–	> 100	> 100	–
O=C1COc2cc3c(cc2N1)SCC(=O)N3	–	–	> 100	> 100 µM	> 100 µM	> 100 µM	> 100 µM	–	–	–	–	–	–	–	–	–	–	–	–	–
Cc1[nH]n(C(=O)c2ccc(Cl)cc2)c(=O)c1/C=C1\C(O)=CC(=O)c2ccccc21	> 100	> 100	> 100	> 100 µM	> 100 µM	> 100 µM	> 100 µM	–	–	–	–	–	–	–	–	–	–	–	–	–
CN(C)C(=O)c1cc2cnc(Nc3ccc(N4CCNCC4)cn3)nc2n1C1CCCC1	49.8	93.6	41.6	58.5 µM	34.5 µM	> 100 µM	61.6 µM	12.7	36.6	0.867	11.3	13.9	12	2.09	1.8	4.37 µM	12.9	91.8	–	–
CN1C/C(=C\c2ccco2)c2nc(N)nc(-c3ccco3)c2C1	> 100	> 100	> 100	> 100 µM	> 100 µM	> 100 µM	–	–	–	–	–	–	–	–	–	–	–	–	–	–
CCOC(=O)Oc1ccc2[nH]c3c(C)cc(N)c(C)c3c2c1	–	> 100	> 100	> 100 µM	> 100 µM	> 100 µM	–	–	–	–	–	–	–	–	–	–	–	–	–	–
CCOC(=O)C1C(=O)C(=O)N2CCc3c([nH]c4ccccc34)C12 (stereo unspecified)	> 100	> 100	> 100	> 100 µM	> 100 µM	> 100 µM	> 100 µM	–	–	–	–	–	–	–	–	–	–	–	–	–
Nc1ccc2ncc(Nc3ccc(Cl)c(Cl)c3)nc2c1	80.1	> 100	> 100	84.3 µM	65.1 µM	> 100 µM	52.3 µM	–	–	–	–	–	–	–	–	–	–	–	–	–
